In US11767520B2, “Compositions and methods for treating lung inflammation” (aTyr Pharma, Inc., priority 2017, dated 2023):

What was measured:
[1] = test system: bleomycin-induced lung fibrosis; experiment: Survival, BLM-induced lung fibrosis mouse model (Example 1, Table E2); assay type: in vivo, mouse (male C57Bl/6J); conditions: for Survival (number of animals surviving to study day): Ninte. 60 mg/kg PO, BLM mice, 12 at start
Method: (§1) Lung inflammation and fibrosis were induced in male C57Bl/6J mice by oropharyngeal administration of BLM. After the habituation phase mice were randomized based on body weight over the different groups. Under isoflurane anesthesia, 50 μl PBS or BLM was dripped onto the vocal cords facilitating aspiration. Mice were sacrificed at day 21 using a terminal bleed under isoflurane anesthesia.
(§2) Daily oral treatments commenced on Day 0, while daily IV treatments commenced on Day 8. Dosing was planned to continue until the day of termination (Day 21), however, due to high mortality in IV treated groups (see results), IV dosing was skipped on Day 19 and Day 20. […] Subsequently, the mice received 8% D20 (Kinemed, Emeryville) drinking water until sacrifice to maintain labeling of newly formed collagen. Body weight was monitored three times a week.
The study commenced with 7 animals in the non-diseased control group and 12 animals in the BLM-induced groups. Survival is show in Table E2 below.

[2] = Body weight, BLM mouse model (Example 1); assay type: in vivo, mouse (male C57Bl/6J); conditions: BLM-induced mice; daily PO from Day 0: dexamethasone 0.25 mg/kg, Nintedanib 60 mg/kg
Method: as §1, §2

[3] = Body weight, BLM rat model (Example 2); assay type: in vivo, rat (male Sprague Dawley); conditions: BLM-induced rats; Nintedanib 60 mg/kg PO daily; Test Article = HRS^FC1 0.1-3 mg/kg IV weekly
Method: (§3) PBS or BLM was administered under isoflurane anesthesia.
(§4) In-life, body weights were measured and clinical observations were conducted daily. On Day 8 and Day 15, animals were removed from their home cages and placed individually into whole body plethysmography chambers. After a 20-minute acclimatization phase, respiratory parameters were recorded for 10 minutes.

[4] = test system: bleomycin-induced respiratory impairment; experiment: Respiratory measurements by whole body plethysmography, BLM rat model (Example 2, Table E4); assay type: in vivo, rat (male Sprague Dawley); conditions: for Expiratory Time / Inspiratory Time / Peak Expiratory Flow / Peak Inspiratory Flow / Tidal Volume / Respiratory Rate / Respiratory Minute Volume: Ninte. 60 mg/kg PO daily from Day 1, mean; for Respiratory Rate: in breaths/min (unit assumed); for Respiratory Minute Volume: in mL/min (unit assumed)
Method: as §3, §4

[5] = test system: bleomycin-induced lung inflammation; experiment: Histological inflammatory cell infiltrate and type II pneumocyte hyperplasia scores, BLM rat model (Example 2); assay type: in vivo, rat (male Sprague Dawley); conditions: BLM-induced rats, Day 22; Nintedanib PO; Test Article = HRS^FC1 1 mg/kg on Days 2, 9 and 16; FIG. 5
Method: The five lung lobes were collected and weighed. The right lung lobes were inflated and fixed in 10% neutral buffered formalin and embedded in paraffin for histological analysis. An approximately 50 mg piece of the left lung lobe was snap frozen and stored at −80° C. for potential RNA analysis. The remainder of the lobe was also snap frozen until analyzed for collagen content.
Sections for histology were stained using picrosirius red and were scored in a blinded fashion (1 score for each of the 4 lobes) by a veterinary pathologist using a modified Ashcroft score (Hubner et al., 2008). Hydroxyproline content was determined in the left lung lobe using a mass spectrometry method.
Slides were read by a veterinary pathologist and each of the 4 lobes evaluated was assigned 4 scores [Ashcroft for fibrosis (scores range from 0 to 8), perivascular/peribronchiolar inflammatory cell infiltrate (scores range from 0 to 5), interstitial/alveolar inflammatory cell infiltrate (scores range from 0 to 5), type II pneumocyte hyperplasia (scores range from 0 to 5)].

[6] = Body weight, BLM rat model, combination study (Example 3); assay type: in vivo, rat (male Sprague Dawley); conditions: BLM-induced rats; Nintedanib, Pirfenidone or Test Article (HRS^FC1 3 mg/kg IV weekly), alone or in combination, from Day 9
Method: (§5) PBS or BLM was administered under isoflurane anesthesia. Excess rats were induced with BLM and used to replace any animals with excessive body weight loss.
(§6) All treatments commenced on Day 9.
(§7) In-life, body weights were measured and clinical observations were conducted daily. On Days 8, 15 and 21, animals were removed from their home cages and placed individually into whole body plethysmography chambers. After a 20-minute acclimatization phase, respiratory parameters were recorded for 10 minutes. Pre-study and on Days 10 and Day 17, whole blood was obtained from the tail vein and processed to serum for measurement of HRS^FC1.

[7] = test system: bleomycin-induced respiratory impairment; experiment: Respiratory measurements by whole body plethysmography, BLM rat model, combination study (Example 3, Table E6); assay type: in vivo, rat (male Sprague Dawley); set-up: Tidal Volume: unit not given here; conditions: for Expiratory Time / Inspiratory Time / Peak Expiratory Flow / Peak Inspiratory Flow / Tidal Volume / Respiratory Rate / Respiratory Minute Volume: mean; for Respiratory Rate: in breaths/min (unit assumed); for Respiratory Minute Volume: in mL/min (unit assumed)
Method: as §5, §6, §7

[8] = Day 8 (prior to any treatments), Ninte. PO + Vehicle IV group

COC(=O)c1ccc2c(c1)NC(=O)/C2=C(\Nc1ccc(N(C)C(=O)CN2CCN(C)CC2)cc1)c1ccccc1 [Nintedanib, nintedanib]
Survival rate ([1]; BLM-induced mice to Day 21, daily PO from Day 0: dexamethasone 0.25 mg/kg, Nintedanib 60 mg/kg): 92% | Survival (number of animals surviving to study day) ([1]; Day 11): 12 | Survival (number of animals surviving to study day) ([1]; Day 12): 12 | Survival (number of animals surviving to study day) ([1]; Day 13): 12 | Survival (number of animals surviving to study day) ([1]; Day 14): 12 | Survival (number of animals surviving to study day) ([1]; Day 15): 12 | Survival (number of animals surviving to study day) ([1]; Day 16): 12 | Survival (number of animals surviving to study day) ([1]; Day 17): 12 | Survival (number of animals surviving to study day) ([1]; Day 18): 12 | Survival (number of animals surviving to study day) ([1]; Day 19): 12 | Survival (number of animals surviving to study day) ([1]; Day 20): 12 | Survival (number of animals surviving to study day) ([1]; Day 21): 11 | Body weight, of initial body weights [2]: around 90% | Body weight curves vs respective controls [3]: None of the groups treated with Nintedanib or Test Article had body weight curves that significantly differed | BLM-induced alterations in respiratory parameters ([4]; BLM-induced rats, Day 15, Nintedanib 60 mg/kg PO, Test Article = HRS^FC1 IV weekly): did not significantly impact | Respiratory minute volume (RMV) ([4]; BLM-induced rats, Day 15, Nintedanib PO, Test Article = HRS^FC1 0.1-3 mg/kg from Day 9 or Day 2, FIG. 3): no impact on RMV | Expiratory Time ([4]; Day 8): 0.12 s | Inspiratory Time ([4]; Day 8): 0.09 s | Peak Expiratory Flow ([4]; Day 8): 28.4 | Peak Inspiratory Flow ([4]; Day 8): 26.7 | Tidal Volume ([4]; Day 8): 1.5 mL | Respiratory Rate ([4]; Day 8): 313.0 | Respiratory Minute Volume ([4]; Day 8): 477.5 | Expiratory Time ([4]; Day 15): 0.12 s | Inspiratory Time ([4]; Day 15): 0.09 s | Peak Expiratory Flow ([4]; Day 15): 28.8 | Peak Inspiratory Flow ([4]; Day 15): 29.0 | Tidal Volume ([4]; Day 15): 1.6 mL | Respiratory Rate ([4]; Day 15): 317.3 | Respiratory Minute Volume ([4]; Day 15): 534.6 | Interstitial/alveolar inflammatory cell infiltrate score [5]: no effect on interstitial inflammatory cell infiltrate | Body weight curves vs respective controls [6]: None of the groups treated with Nintedanib, Pirfenidone or Test Article alone or in combination had body weight curves that significantly differed | BLM-induced alterations in respiratory parameters ([7]; BLM-induced rats, Day 15 and Day 21, Nintedanib, Pirfenidone or Test Article (HRS^FC1)): did not significantly impact | Expiratory Time [7, 8]: 0.151 s | Inspiratory Time [7, 8]: 0.115 s | Peak Expiratory Flow [7, 8]: 18.4 | Peak Inspiratory Flow [7, 8]: 17.2 | Tidal Volume [7, 8]: 1.19 | Respiratory Rate [7, 8]: 249.0 | Respiratory Minute Volume [7, 8]: 304.5 | Expiratory Time ([7]; Day 15, Ninte. PO + Vehicle IV): 0.205 s | Inspiratory Time ([7]; Day 15, Ninte. PO + Vehicle IV): 0.122 s | Peak Expiratory Flow ([7]; Day 15, Ninte. PO + Vehicle IV): 16.5 | Peak Inspiratory Flow ([7]; Day 15, Ninte. PO + Vehicle IV): 19.0 | Tidal Volume ([7]; Day 15, Ninte. PO + Vehicle IV): 1.35 | Respiratory Rate ([7]; Day 15, Ninte. PO + Vehicle IV): 223.4 | Respiratory Minute Volume ([7]; Day 15, Ninte. PO + Vehicle IV): 309.5 | Expiratory Time ([7]; Day 21, Ninte. PO + Vehicle IV): 0.231 s | Inspiratory Time ([7]; Day 21, Ninte. PO + Vehicle IV): 0.127 s | Peak Expiratory Flow ([7]; Day 21, Ninte. PO + Vehicle IV): 13.9 | Peak Inspiratory Flow ([7]; Day 21, Ninte. PO + Vehicle IV): 18.1 | Tidal Volume ([7]; Day 21, Ninte. PO + Vehicle IV): 1.44 | Respiratory Rate ([7]; Day 21, Ninte. PO + Vehicle IV): 203.7 | Respiratory Minute Volume ([7]; Day 21, Ninte. PO + Vehicle IV): 286.0
